Tests used:
Format in all cases: in vivo, BALB/c mice
[1] = tested on: light irradiation model (atrophic AMD model mouse); assay: Pharmacological test against AMD, light-induced AMD model mice, oral administration, ONL thickness
Procedure: A test was performed using a light irradiation model, which is widely employed as an atrophic AMD model mouse, as a test model. Male BALB/c mice (4 weeks old) were purchased from Japan SLC, Inc., and allowed to acclimate for a week before being used for experiments. Laboratory animal chow (CLEA Rodent Diet CE-2, CREA JAPAN, INC.) was used as food, and tap water was freely consumed as drinking water. The animals were raised under light and dark cycles of every 12 hours. Also all animal experiments were conducted under the approval of the Kyushu University Animal Experiment Committee. To BALB/c mice, 1 mL/kg of 50 μM compound dissolved in PBS containing 10% polyethylene glycol (PEG) 300 was orally administered. Thirty (30) minutes later, one drop of […] (5 mg/mL tropicamide, 5 mg/mL phenylephrine hydrochloride; Santen Pharmaceutical Co., Ltd.) was applied to each eye as a mydriatic drug. The mice were irradiated with 8000 lux white light for 10 hours, then returned to under normal light and dark cycles, and raised for 6 days. On day 7, the animal was euthanized by cervical dislocation, and the eyeballs were removed (FIG. 1A). Frozen sections of 8 μm thickness were prepared by using the above-mentioned removed eyeballs, and subjected to hematoxylin eosin (HE) staining, and the thickness of the outer nuclear layer (ONL) was measured over 27 points every 180 μm (observation magnification: 60 times) (FIG. 1B). The preparation was air-dried for 1 hour, fixed with acetone at room temperature for 15 minutes, then immersed in 99.5% EtOH, 80% EtOH, 70% EtOH, and purified water in this order for 3 minutes each, and stained with hematoxylin for 10 minutes. Then, it was washed with running water for 10 minutes, soaked in warm water for 1 minute, and stained with eosin for 1.5 minutes. After washing with purified water, it was immersed in 70% EtOH, 80% EtOH, and 99.5% EtOH in this order for 3 minutes each, then washed with xylene three times, dried, and then enclosed with VectaMountTM Mounting Medium. The resultant was subjected to observation and imaging with Keyence fluorescence microscope (BZ-9000). Results were expressed as mean+standard deviation. Dunnett's Test was used for multigroup comparison.

[2] = tested on: mRNA of microglia marker protein; assay: Activity evaluation test of microglia (real-time PCR of retina, AMD model mice); conditions: oral, 1 mL/kg of 50 μM, pathological group of mice
[3] = tested on: light irradiation model (atrophic AMD model mouse); assay: Pharmacological test against AMD, light-induced AMD model mice, administration by eye drop, ONL thickness; conditions: 50 μL per one eye
Procedure: A test was performed using a light irradiation model, which is widely employed as an atrophic AMD model mouse, as a test model.
(§1) Male BALB/c mice (4 weeks old) were purchased from Japan SLC, Inc., and allowed to acclimate for a week before being used for experiments. Laboratory animal chow (CLEA Rodent Diet CE-2, CREA JAPAN, INC.) was used as food, and tap water was freely consumed as drinking water. The animals were raised under light and dark cycles of every 12 hours. Also all animal experiments were conducted under the approval of the Kyushu University Animal Experiment Committee.
To BALB/c mice, Midrin P (5 mg/mL tropicamide, 5 mg/mL phenylephrine hydrochloride; Santen Pharmaceutical Co., Ltd.) as a mydriatic drug was applied to both eyes by one drop per one eye, and after 10 minutes, 0.45%, 0.75% or 1% of methyldopa that was dissolved in PBS containing 10% polyethylene glycol (PEG) 300 was administered with eye drop in 50 μL of the compound per one eye. Thereafter, the mice were irradiated with 8000 lux white light for 10 hours, then returned to under normal light and dark cycles, and raised for 6 days. On day 7, the animal was euthanized by cervical dislocation, and the eyeballs were removed.
Frozen sections of 8 μm thickness were prepared by using the above-mentioned removed eyeballs, and subjected to hematoxylin eosin (HE) staining, and the thickness of the outer nuclear layer (ONL) was measured over 27 points every 180 μm (observation magnification: 40 times).
The preparation was air-dried for 1 hour, fixed with acetone at room temperature for 15 minutes, then immersed in 99.5% EtOH, 80% EtOH, 70% EtOH, and purified water in this order for 3 minutes each, and stained with hematoxylin for 10 minutes. Then, it was washed with running water for 10 minutes, soaked in warm water for 1 minute, and stained with eosin for 1.5 minutes. […] The resultant was subjected to observation and imaging with Keyence fluorescence microscope (BZ-9000).
Results were expressed as mean+standard deviation. […]

mRNA of the complement = assay: Activity evaluation test of complement (real-time PCR of retina, AMD model mice); conditions: oral, 1 mL/kg of 50 μM, pathological group of mice
Procedure: Specifically, to 9 week olds of BALB/c mice, 1 mL/kg of 50 μM test compounds dissolved in PBS containing 10% polyethylene glycol (PEG) 300 was orally administered. A PBS solution containing 10% polyethylene glycol (PEG) 300 was used as a control. Thirty (30) minutes later, one drop of Midrin P (5 mg/mL tropicamide, 5 mg/mL phenylephrine hydrochloride; Santen Pharmaceutical Co., Ltd.) as a mydriatic drug was applied to both eyes by one drop per one eye. The mice were irradiated with 8000 lux white light for 10 hours, then returned to under normal light and dark cycles, and raised for the desirable observation periods. After the observation periods, the animal was euthanized by cervical dislocation, and the retina were removed.
For the removed retina, RNA was extracted by using ISOSPIN Cell & Tissue RNA (manufactured by Nippon Gene Co. Ltd), and cDNA was then synthesized by using ReverTra Ace™ qPCR RT master Mix (manufactured by Toyobo Co. Ltd). The obtained cDNA was diluted with sterile water to 0.5 ng/μL, and a real-time PCR was carried out with THUNDERBIRD™ SYBR™ qPCR Mix (manufactured by Toyobo Co. Ltd). All of the test results were corrected by Gapdh mRNA amounts, and a relative quantification was carried. […]

[4] = tested on: mRNA of Muller cell marker protein; assay: Activity evaluation test of Muller cell (real-time PCR of retina, AMD model mice); conditions: oral, 1 mL/kg of 50 μM, pathological group of mice
Excerpt: For age-related macular degeneration (AMD), the suppression activity of the test compounds against the expression amount of mRNA of a marker protein, which is used as an indicator of activity of Muller cell and is increased as a pathology is deteriorated, was examined. The present compound as test compound was methyldopa (Compound Y).
as §1
A method for producing age-related macular degeneration (AMD) model mice (production schedule) was prepared according to the method described in Test Example 2 (FIG. 3). […]
For the removed retina, RNA was extracted by using ISOSPIN Cell & Tissue RNA (manufactured by Nippon Gene Co. Ltd), and cDNA was then synthesized by using ReverTra Ace™ qPCR RT master Mix (manufactured by Toyobo Co. Ltd). […] All of the test results were corrected by Gapdh mRNA amounts, and a relative quantification was carried.

[5] = 50 μmol/kg, 8000 lux white light 10 hours, day 7

Structure (SMILES) | ONL thickness compared to positive control [1, 5] | ONL thickness compared to positive control ([1]; 100 μmol/kg) | ONL thickness compared to positive control ([1]; 200 μmol/kg) | expression amounts of mRNA in microglia marker protein [2] | ONL thickness compared to light irradiation case ([3]; eye drop 0.45%) | ONL thickness compared to light irradiation case ([3]; eye drop 0.75%) | ONL thickness compared to light irradiation case ([3]; eye drop 1%) | expression amounts of mRNA in the complement (mRNA of the complement) | expression amounts of mRNA in Muller cell marker protein [4]
CC1Cc2ccccc2N1NC(=O)c1ccc(Cl)c(S(N)(=O)=O)c1 (racemic) [indapamide, 4-Chloro-N-[(2RS)-2-methyl-2,3-dihydro-1H-indol-1-yl]-3-sulfamoyl Benzamide] | not different so much compared to that of the positive control | – | – | – | – | – | – | – | –
CCOc1ccc2c(c1)C(C)=CC(C)(C)N2 [ethoxyquin, 6-Ethoxy-2,2,4-trimethyl-1,2-dihydroquinoline] | not different so much compared to that of the positive control | – | – | – | – | – | – | – | –
C[C@](N)(Cc1ccc(O)c(O)c1)C(=O)O [methyldopa, Methyldopa Sesquihydrates] | – | didn't have significant difference compared to that of the positive control | didn't have significant difference compared to that of the positive control | suppress significantly | significant thickness compared to that of the light irradiation case | significant thickness compared to that of the light irradiation case | significant thickness compared to that of the light irradiation case | suppress significantly | suppress significantly

Source: patent publication US20220096410A1, “PHARMACEUTICAL COMPOSITION FOR INTRAOCULAR OR ORAL ADMINISTRATION FOR TREATMENT OF RETINAL DISEASES” (FUSO PHARMACEUTICAL INDUSTRIES, LTD., priority 2019, published 2022)
